Measurements published in patent US7160894B2, “Tricyclic compound” (Asahi Kasei Pharma Corporation, priority 2003, dated 2007).

What was measured:
[1] = system: thoracic aorta constricted with phenylephrine; experiment: Vasoconstriction inhibitory action (Test Example 2); parameters: species or system Rats (Wistar); details: test compound 1 μM; rat thoracic aorta constricted with phenylephrine 1 μM
Description: Rats (Wistar, 11-week old) were bleeded to death and laparotomized to take out the thoracic aorta. That aorta was cut into a ring of a length of about 3 mm in a conventional manner (Asano, T., et al., J. Pharmacol. Exp. Ther., 241, pp. 1033–1040 (1987)) and hung in 10-ml organ bath filled with Krebs-Hensright nutrient solution bubbled with a mixed gas of 95% O2 and 5% CO2. One end of the blood vessel was connected to an isometric transducer (FD Pickup TB-912T, Nihon Kohden) and applied with 2.5 g of resting tension, and constriction and relaxation reactions of the aorta were recorded.
The aorta was constricted with phenylephrine (1 μM, Sigma) and then added with a test compound (1 μM), and the vasoconstriction inhibitory action thereof was observed. The vasoconstriction inhibitory actions of the test compounds were calculated as relaxation ratios, which were based on the vasoconstriction with phenylephrine observed immediately before the addition of the test compounds taken as 100%.

[2] = system: ovalbumin-induced constriction of respiratory tract; experiment: Respiratory tract constriction suppressing action, intravenous administration (Test Example 3); format: in vivo, Hartley guinea pigs; details: ovalbumin-immunized guinea pigs, administered from cannula in hind leg vein, measured for 15 minutes
Procedure: Four-week old Hartley guinea pigs (male) were immunized by intraperitoneal administration of ovalbumin (Sigma, Grade V) in amounts of 1 mg for each animal on the day on which the experiment was started, 3 mg for each animal after 2 days, and 10 mg for each animal after 4 days. Twelve to fourteen days after the final immunization, the ovalbumin-immunized guinea pigs were anesthetized by intraperitoneal administration of about 40 mg/kg of pentobarbital (Somnopentyl), and the tracheas were taken out. Subsequently, a cannula (SP-110, Natsume) was inserted into each trachea, and one end of the cannula was connected to an artificial respirator (Model-b83, Harvard). The aeration conditions were set at 6 ml per kilogram and 60 times per 1 minute. Further, a cannula for medicament administration (JMS wing needle 23G 3/4) was inserted into a hind leg vein. Myoblock (Organon Technica) was administered in an amount of 0.5 mg/kg from the cannula inserted into the hind leg vein to stop the spontaneous breathing, and after 2 or 3 minutes, 0.3 mg/kg of ovalbumin was administered to induce constriction of respiratory tract. The increase of airway resistance value 2 minutes after the induction (measurement apparatuses: pressure transducer TR-603T, respiratory amplifier AR-601G, and recorder RTA-3100, Nihon Kohden Corp.) was confirmed to be above 80 cm H2O or higher, and then, a solution of a test medicament was administered from the cannula inserted into the hind leg vein, and the airway resistance value was continuously measured for 15 minutes after the administration to determine the effect.

[3] = system: ovalbumin-induced constriction of respiratory tract; experiment: Respiratory tract constriction suppressing action, administration by inhalation (Test Example 3); format: in vivo, Hartley guinea pigs; details: ovalbumin-immunized guinea pigs, 2 ml solution by inhalation over 5 minutes
Procedure: Four-week old Hartley guinea pigs (male) were immunized by intraperitoneal administration of ovalbumin (Sigma, Grade V) in amounts of 1 mg for each animal on the day on which the experiment was started, 3 mg for each animal after 2 days, and 10 mg for each animal after 4 days. Further, the respiratory tract constriction suppression action of the test compounds was also evaluated by inhalation. Twelve to fourteen days after the final sensitization, 10 mg/kg of pyrilamine (Sigma), 5 mg/kg of indomethacin (Wako), or 0.1 mg/kg of propranolol (Sigma) was intraperitoneally administered. Then, 30 minutes after the administration, a 0.1% ovalbumin aqueous solution was inhaled by using a pressurization type nebulizer (PARI-IS2) to induce constriction of the respiratory tract. Ten minutes after the induction, 2 ml of a solution of a test compound prepared at various concentrations was filled in the aforementioned nebulizer, and administered by inhalation over 5 minutes. After the administration of pyrilamine and other drugs, airway resistance value was continuously measured to determine effectiveness.

[4] = system: cerebral hippocampal neurons; experiment: Neurite outgrowth action (Test Example 5); format: cell-based, Sprague-Dawley rats; details: rat hippocampal neurons, 24 hours after addition
Procedure: From 18 day-old Sprague-Dawley rats, cerebral hippocampal neurons were prepared according to the method of Neuman et al. (Neuman, H. R. et al., J. Neurosci., 22, pp. 854–862, 2002). The prepared neurons were cultured for 24 hours according to the method of Tanaka et al. (Tanaka, H. et al., J. Cell Biol., 158 (2), pp. 321–329, 2002), then the medium was exchanged with fresh medium, and test medicaments of various concentrations or equivalent amounts of vehicle were added. Twenty-four hours after the addition of the medicaments, neurite length of each neuron was measured for the medicament-added group and the no-addition group, and compared. The neurite length was evaluated according to the method of Neuman et al. (Neuman, H. R. et al., J. Neurosci., 22, pp. 854–862, 2002).

[5] = system: lipopolysaccharide-induced pulmonary inflammation; experiment: Pulmonary inflammation suppressing action, LPS-induced (Test Example 8); format: in vivo, BALB/c female mice; details: mice, LPS inhalation, test compound by inhalation over 10 minutes, 3 hours after administration
Description: According to Gonzales de Moraes, V L., et al., Br. J. Pharmacol., 123, pp. 631–6, 1998, suppressing action on pulmonary inflammation was studied. BALB/c female mice (7-week old) were used for the test, as the compound administration group and positive control group, each consisting of 7 mice, as well as the negative control group consisting of 5 mice. For induction of inflammation, a 0.03% physiological saline solution of a lipopolysaccharide (LPS, a mixture derived from Escherichia coli O55 and B5 strains, Sigma) was used. A test compound was dissolved in physiological saline to prepare solutions of various concentrations. The test animals were first inhaled with the aforementioned lipopolysaccharide solution for 10 minutes by using a pressurization type nebulizer (PARI-IS2) to induce inflammation. Then, 1 minute after the completion of the inhalation of the lipopolysaccharide solution, the animals were administered with a solution of test compound at various concentrations over 10 minutes by inhalation using the aforementioned nebulizer. The mice of the positive control group were administered with the same volume of physiological saline instead of the test compound solution over 10 minutes by inhalation. Three hours after the administration of the test compound, pulmonary cavities of the test animals were washed with physiological saline, and the total infiltrated leucocyte (WBC) number was counted.

intraocular pressure = experiment: Intraocular pressure reducing action (Test Example 4); format: in vivo, Japanese white rabbit; details: rabbit, 50 μl of aqueous solution dropped to the left eye
Procedure: A Japanese white rabbit having a body weight of about 2 kg was placed in a positioner and naturalized for one week before the experiment. An ophthalmologic local anesthesant (Benoxil) was administered to the left eye, and then intraocular pressure was measured by using a tonometer (Classic 30, Solan). The initial value of the intraocular pressure was measured, then 50 μl of an aqueous solution of a test compound was dropped to the left eye at various concentrations, and the intraocular pressure was measured with passage of time.

[6] = system: myosin regulatory light chain; details: mesenteric artery, iris smooth muscle, astrocyte; cited from earlier work

| SMILES | vasoconstriction inhibitory action (relaxation ratio) [1] | improvement of constriction of respiratory tract (airway resistance value) [2] | improvement of constriction of respiratory tract (airway resistance value) [3] | neurite outgrowth (neurite length) [4] | pulmonary inflammation, total infiltrated leucocyte (WBC) number [5] | intraocular pressure reducing action (intraocular pressure) | inhibition of phosphorylation of the myosin regulatory light chain [6] |
| --- | --- | --- | --- | --- | --- | --- | --- |
| Cl.O=C(O)CN1CCC(N2CCc3cncc4cccc2c34)CC1 [Example 17] | significant vasoconstriction inhibitory action | significantly improved the constriction of respiratory tract | significantly improved the constriction of respiratory tract | significant neurite outgrowth axis extension | significantly improved the pathological condition | – | – |
| Cl.NC(=O)CN1CCC(N2CCc3cncc4cccc2c34)CC1 [Example 20] | significant vasoconstriction inhibitory action | significantly improved the constriction of respiratory tract | significantly improved the constriction of respiratory tract | significant neurite outgrowth axis extension | significantly improved the pathological condition | significant intraocular pressure reducing action | – |
| Cl.NCCN[C@H]1CC[C@H](N2CCc3cncc4cccc2c34)CC1 [Example 24] | significant vasoconstriction inhibitory action | significantly improved the constriction of respiratory tract | significantly improved the constriction of respiratory tract | significant neurite outgrowth axis extension | significantly improved the pathological condition | – | – |
| CC1CNCCN1S(=O)(=O)c1cccc2cnccc12 (centres unmarked) [Example H-7, 1-(5-isoquinolinesulfonyl)-2-methylpiperazine] | – | – | – | – | – | – | inhibits phosphorylation of the myosin regulatory light chain |
